Test results from PubChem BioAssay AID434946 (Broad Institute, 2010).
Active and inactive are the calls of the source.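 How the source made its calls: active means compounds lowering the growth signal with a fitted EC50 no more than tenfold above the top dose; inconclusive means flat fit with partial effect, or a poor fit; inactive means the rest.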

system: NIH 3T3 fibroblast viability, Alamar Blue fluorescence, 48 h; test: NIH 3T3 fibroblast cytotoxicity, no fluconazole, dose response, cytotoxicity control for Candida fluconazole-potentiator project, cell-based, alamar blue fluorescence (AID 434946)

Question: For `CCc1ccc2c(c1)/C(=C/C(=O)c1cccs1)C(=O)N2`, which EC50 is on record?
Answer: > 26 µM (inactive)

Question: Which EC50 does the source give for `O=C(Nc1nnc(SCc2ccc(Cl)cc2)s1)c1ccc2ccccc2n1` here?
Answer: > 26 µM (inactive)

Question: With `O=C(Nc1sc2c(c1C(=O)c1ccc(Cl)cc1)CCCC2)c1cccnc1` as the compound, how does the EC50 read?
Answer: > 26 µM (inactive)

Question: How did the EC50 turn out when `COc1ccc(-n2nc(C(=O)NCC(=O)N3CCN(c4ccccc4)CC3)c3ccccc3c2=O)c(OC)c1` was run?
Answer: > 26 µM (inactive)

Question: With `CCOC(=O)N1C(=O)C2(CCCCC2)N(c2ccc(C)cc2)C1=S` as the compound, how does the EC50 read?
Answer: 0.888 µM

Question: How did the EC50 turn out when `CCOC(=O)c1c(-c2ccccc2Cl)cn2ccccc12` was run?
Answer: > 26 µM (inactive)

Question: How did the EC50 turn out when `O=C(Nc1nnc(-c2ccc3c(c2)CCCC3)o1)c1ccc(Cl)cc1Cl` was run?
Answer: 18.4 µM

Question: How did the EC50 turn out when `O=C(NNC1=C(C(=O)C(F)(F)F)CCC1)c1ccc(Cl)cc1` was run?
Answer: > 26 µM (inactive)

Question: Which EC50 does the source give for `CC(C)N1CCc2c(sc(NC(=O)c3nc4ccccc4s3)c2C(N)=O)C1` here?
Answer: > 26 µM (inactive)

Question: How did the EC50 turn out when `Clc1ccc2c(c1)C(c1cccs1)=NNC(c1cccnc1)=N2` was run?
Answer: > 26 µM (inactive)

Question: `O=C(Nc1nc(-c2ccccn2)cs1)c1ccc(Br)s1` was tested. Which EC50 did it give?
Answer: 11.9 µM

Question: Which EC50 does the source give for `Cc1ccc(Nc2nc(N)c([N+](=O)[O-])c(N3CCC(C)CC3)n2)cc1C` here?
Answer: > 26 µM (inactive)

Question: With `COc1cc2c(cc1NC(=O)c1ccco1)CCCC2` as the compound, how does the EC50 read?
Answer: > 26 µM (inactive)

Question: For `Cc1oc2c(F)c(F)c(F)c(F)c2c1S(=O)(=O)Nc1cccc(C(F)(F)F)c1`, which EC50 is on record?
Answer: > 26 µM (inactive)

Question: How did the EC50 turn out when `O=C(Nc1nnc(CCc2ccccc2)s1)c1ccco1` was run?
Answer: > 26 µM (inactive)

Question: With `Cc1ccc(C(=O)c2coc3c2C(=O)C(=O)c2ccccc2-3)cc1` as the compound, how does the EC50 read?
Answer: > 26 µM (inactive)

Question: Which EC50 does the source give for `O=C1/C(=C\c2ccccc2)CCc2c1[nH]c1ccccc21` here?
Answer: > 26 µM (inactive)

Question: With `O=C(Nc1nnc(-c2ccco2)o1)c1ccc(Cl)cc1` as the compound, how does the EC50 read?
Answer: > 26 µM (inactive)

Question: `Cc1ccc(/C=C/C(=O)c2ccccc(=O)c2O)cc1C` was tested. Which EC50 did it give?
Answer: > 26 µM (inactive)

Question: With `CCCC(=O)NC(c1ccc(Cl)cc1)c1ccc2cccnc2c1O` (configuration not stated) as the compound, how does the EC50 read?
Answer: 21.3 µM

Question: Which EC50 does the source give for `Cc1nc2ccccc2cc1OCc1ccc(F)cc1` here?
Answer: > 26 µM (inactive)

Question: How did the EC50 turn out when `CC(C)COCc1ccc(O)c2ncccc12` was run?
Answer: 19.5 µM

Question: `O=C(Oc1c(Cl)cc(Cl)c2cccnc12)c1cccs1` was tested. Which EC50 did it give?
Answer: 1.98 µM

Question: With `COc1ccc(-c2nnc(NC(=O)c3ccc(F)cc3)o2)cc1` as the compound, how does the EC50 read?
Answer: > 26 µM (inactive)

Question: How did the EC50 turn out when `Nc1nccnc1C(=O)Nc1nnc(SCc2ccc(Cl)cc2)s1` was run?
Answer: > 26 µM (inactive)

Question: Which EC50 does the source give for `c1ccc2c(c1)OCC(CNc1ncnc3sccc13)O2` (configuration not stated) here?
Answer: > 26 µM (inactive)

Question: How did the EC50 turn out when `Cc1ccc(C(=O)Nc2cccc(-c3cn4ccccc4n3)c2)cc1` was run?
Answer: > 26 µM (inactive)
